How the values were obtained:
[1] = tested on: transgenic soybean plants expressing CYP14; assay: Icafolin herbicide injury rating, greenhouse spray, CYP14 soybean; format: in vivo
From the text: (§1) The codon-optimized polynucleotide sequences were placed into plant transformation cassettes with each CYP coding sequence operably-linked to a constitutive expression element comprising the promoter, leader, and intron sequence of Arabidopsis thaliana Ubiquitin 3 (SEQ ID NO:14) and a Medicago truncatula photosystem II terminator (SEQ ID NO:15). Four plant transformation vectors were created, each comprising one of the CYP gene expression cassettes and an aadA selectable marker expression cassette, conferring resistance to the antibiotics spectinomycin and streptomycin. Soybean cultivar AG3555 seed-derived embryo explants were transformed with the vectors by Agrobacterium-mediated transformation using known methods in the art, and transformed plantlets were selected based on growth in the presence of spectinomycin. Plantlets comprising single copy events were grown in the greenhouse to produce R1 seeds. R1 plants were subsequently selected for homozygous CYP-positive plants, either by molecular analysis of young leaf tissue or by seed chipping prior to planting. These selected plants were then screened for tolerance to icafolin herbicide.
(§2) Herbicide tolerance screens were performed by selecting R1 plants at roughly the V2-V3 developmental stage and applying icafolin herbicide with a track sprayer under standard greenhouse conditions. Two independent transgenic events per transgene were screened. The herbicide was formulated with 1% v/v methylated seed oil (MSO) and 2.5% v/v ammonium sulfate (AMS) and sprayed with a XR nozzle at 15 gallons per […] (GPA) to mimic field conditions. The icafolin used in this Example and in the experiments described in Examples 2-4 was a mixture of the methyl ester forms of the 2R, 4R and 2S, 4S isomers. The icafolin formulation was sprayed at two rates: 5 g active ingredient (ai)/hectare (ha) and 25 g ai/ha. The herbicide treated soybean plants were returned to the greenhouse following spray application and allowed to grow under standard conditions. Plants were rated for herbicide injury at approximately 14 and 21 days after treatment (DAT). Untreated transgenic plants and control (wild-type) plants were used for phenotypic comparison. The herbicide injury rating accounts for plant malformation, stunting, chlorosis, necrosis, and plant death relative to the untreated control plants. An injury rating of approximately 90% or above indicates nearly complete plant death. An injury rating of less than 30% indicates partial tolerance, and an injury rating of less than 20% indicates good tolerance. Injury ratings were collected and analyzed, and photographs of representative plants were taken.

[2] = tested on: transgenic soybean plants expressing CYP13; assay: Icafolin herbicide injury rating, greenhouse spray, CYP13 soybean; format: in vivo; conditions: for Percent Injury 15 DAT / Percent injury 21 DAT: Experiment 1
From the text: as §1, §2

[3] = CYP14 Event 267, 5 g ai/ha icafolin, Experiment 2
[4] = CYP14 Event 267, 5 g ai/ha icafolin, Experiment 1
[5] = CYP14 Event 267, 25 g ai/ha icafolin, Experiment 2
[6] = CYP14 Event 267, 25 g ai/ha icafolin, Experiment 1
[7] = CYP14 Event 280, 5 g ai/ha icafolin, Experiment 2
[8] = CYP14 Event 280, 25 g ai/ha icafolin, Experiment 2
[9] = CYP14 Event 309, 5 g ai/ha icafolin, Experiment 2
[10] = CYP14 Event 309, 5 g ai/ha icafolin, Experiment 1
[11] = CYP14 Event 309, 25 g ai/ha icafolin, Experiment 2
[12] = CYP14 Event 309, 25 g ai/ha icafolin, Experiment 1
[13] = CYP14 Event 324, 5 g ai/ha icafolin, Experiment 2
[14] = CYP14 Event 324, 25 g ai/ha icafolin, Experiment 2
[15] = CYP13 Event 943, 5 g ai/ha icafolin
[16] = CYP13 Event 943, 25 g ai/ha icafolin
[17] = CYP13 Event 982, 5 g ai/ha icafolin
[18] = CYP13 Event 982, 25 g ai/ha icafolin

`C=C[C@]1(C(=O)N[C@H]2CO[C@@H](C(=O)OC)C2)CC(c2cc(F)cc(F)c2)=NO1` (relative stereo) [icafolin, methyl(2R*,4R*)-4-[[(5S)-3-(3,5-difluorophenyl)-5-vinyl-4H-isoxazole-5-carbonyl]amino]tetrahydrofuran-2-carboxylate] was tested, and the “Percent Injury 14 DAT” value [1, 3] was 32%, the “Percent Injury 15 DAT” value [1, 4] was 14% and the “Percent injury 21 DAT” value [1, 4] was 12%. The “Percent injury 21 DAT” value [1, 3] was 20%, the “Percent Injury 14 DAT” value [1, 5] was 79% and the “Percent Injury 15 DAT” value [1, 6] was 39%. For the same molecule, the “Percent injury 21 DAT” value [1, 6] was 47%, the “Percent injury 21 DAT” value [1, 5] was 57% and the “Percent Injury 14 DAT” value [1, 7] was 19%. The “Percent injury 21 DAT” value [1, 7] was 12%, the “Percent Injury 14 DAT” value [1, 8] was 64% and the “Percent injury 21 DAT” value [1, 8] was 35%. For the same molecule, the “Percent Injury 14 DAT” value [1, 9] was 37%, the “Percent Injury 15 DAT” value [1, 10] was 33% and the “Percent injury 21 DAT” value [1, 10] was 36%. The “Percent injury 21 DAT” value [1, 9] was 22%, the “Percent Injury 14 DAT” value [1, 11] was 90% and the “Percent Injury 15 DAT” value [1, 12] was 71%. For the same molecule, the “Percent injury 21 DAT” value [1, 12] was 81%, the “Percent injury 21 DAT” value [1, 11] was 89% and the “Percent Injury 14 DAT” value [1, 13] was 48%. The “Percent injury 21 DAT” value [1, 13] was 30%, the “Percent Injury 14 DAT” value [1, 14] was 75% and the “Percent injury 21 DAT” value [1, 14] was 66%. The Tolerance to icafolin ([1]; in vivo) was “unexpected tolerance”, the “injury” value ([1]; in vivo) was “less than 30%” and the “Percent Injury 15 DAT” value [2, 15] was 42%. The “Percent injury 21 DAT” value [2, 15] was 59%, the “Percent Injury 15 DAT” value [2, 16] was 74% and the “Percent injury 21 DAT” value [2, 16] was 80%. For the same molecule, the “Percent Injury 15 DAT” value [2, 17] was 41%, the “Percent injury 21 DAT” value [2, 17] was 52% and the “Percent Injury 15 DAT” value [2, 18] was 69%. For the same molecule, the “Percent injury 21 DAT” value [2, 18] was 80% and the Tolerance to icafolin ([2]; in vivo) was “did not show any noticeable tolerance”.

— US20240415123A1, “METHODS AND COMPOSITIONS FOR ICAFOLIN HERBICIDE TOLERANCE” (Monsanto Technology LLC, priority 2023, published 2024)
